Assay results published in patent US20260207600A1, “METHODS OF TREATMENT WITH MYOSIN MODULATOR” (MYOKARDIA, INC., priority 2019, published 2026).

System: subjects with symptomatic non-obstructive hypertrophic cardiomyopathy (nHCM)
Test: […]-HCM Phase 2 randomized, double-blind, placebo-controlled, concentration-guided study
Assay type: in vivo, human
Set-up: Overall KCCQ Summary Score / Clinical KCCQ Summary Score / Change in Overall KCCQ Summary Score, Mean / Change in Clinical KCCQ Summary Score, Mean / Change from Baseline in Overall KCCQ Summary Score, Mean / Change from Baseline in Clinical KCCQ Summary Score, Mean: scale not given here
Conditions: for Composite functional endpoint Type 1, % / Composite functional endpoint Type 2, % / Met composite functional endpoint, either type, %: Combined Subgroup
Text: This is a Phase 2 trial designed to assess the safety and tolerability of a range of exposures over 16 weeks of treatment in subjects with symptomatic, non-obstructive HCM. All study subjects were required to be diagnosed with non-obstructive HCM, with left ventricular wall thickness either ≥15 mm or ≥13 mm with a family history of HCM, LVEF≥55%, NYHA classifications of Class II or III, and NT-proBNP levels of greater than 300 pg/mL at rest. Baseline characteristics, such as age, weight, gender, pathogenic mutation status, background beta blocker use, NYHA classification and exercise capacity were approximately evenly distributed between active and placebo arms.
This double-blind study enrolled 59 individuals with nHCM (Left ventricular outflow tract gradient<30 mmHg; resting or provoked), NYHA Class II or III, and LVEF≥55%. Subjects were randomized 1:1:1 to one of two target plasma drug concentrations (Group 1: ~200 ng/mL and Group 2: ~ 500 ng/ml) or placebo for 16 weeks, followed by an 8-week washout. […] Predefined criteria, including LVEF (LVEF≤45%), guided study drug discontinuation if indicated. Cardiopulmonary exercise testing was performed at baseline and Week 16 to assess the impact on exercise capacity.
Dose adjustments will be based on PK parameters. Assessments include safety, standardized cardiopulmonary exercise testing (CPET) with measurement of peak oxygen consumption, echocardiography to evaluate left ventricular ejection fraction (LVEF) and parameters of diastolic function, symptoms, quality of life, daily step counts, and NT-proBNP at rest and after exercise. In addition, subjects may consent to hypertrophic cardiomyopathy genotyping and pharmacogenetic sampling.
Cardiac Troponin I levels were evaluated on plasma and serum samples of subjects at baseline and at various time points in the trial (Abbott Architect Stat Troponin-I assay (Ref. 2K41)). Cardiac Troponin T levels were evaluated on plasma and serum samples of subjects at baseline and at various time points in the trial (Roche Elecsys Troponin T hs assay) (Ref. 08469873190) performed on a cobas e 801 analyzer). NT-proBNP levels were evaluated on plasma samples using the Roche Elecsys proBNPII assay (Ref. 07027664190) on a cobas e 801 analyzer.
5 mg QD was used as the starting dose for the study. All subjects in the active treatment groups started on 5 mg QD. […] PK modeling was used to guide blinded dose adjustment at the Week 6 visit, based on the plasma concentrations collected at Week 4. Subjects in the placebo group underwent the same assessments in order to preserve the blind. […] Subjects were instructed to take the drug under fasting conditions, at approximately the same time each day, and with 8 ounces of water.
To achieve the target concentration, if a subject's Week 4 concentration was >450 ng/ml, the subject's dose was decreased to 2.5 mg QD; if Week 4 concentration was 110-450 ng/mL, the dose was maintained at 5 mg QD; and if Week 4 concentration was <110 ng/mL, the dose was increased to 10 mg QD.
Subjects were monitored for adverse events (AE), including high blood plasma concentration, systolic dysfunction, QT prolongation, and LVEF decrease. If any of the following thresholds were hit PK 1000 or more, QTcF 500, or LVEF 45%, the subjects were discontinued on drug. Specifically, high blood plasma concentration was defined as blood plasma concentration greater than or equal to 1000 ng/ml; QT prolongation was defined as QTcF greater than or equal to 500 ms; and LVEF shortening was defined as LVEF less than or equal to 45% (including serious adverse event (SAE) for LVEF less than or equal to 30%).
Efficacy and pharmacodynamics assessments were also made. Resting transthoracic echocardiography measurements were taken at Weeks 4, 8, 12 and 16. Ejection fraction (2-D) and LV frantional shortening were analyzed along with other echocardiographic at baseline measures including measure of diastolic function. […]

[1] = Elevated Troponin subgroup (N = 13), Mean
[2] = Elevated Troponin subgroup, Mean Difference vs Placebo
[3] = ITT, Group 1 ~200 ng/mL (n = 19)
[4] = ITT, Group 2 ~500 ng/mL (n = 21)
[5] = ITT, Week 16, pooled-mavacamten group
[6] = Other subgroup, Mean Difference vs Placebo
[7] = Subgroup with Elevated E/e′ at Baseline, Difference mavacamten vs placebo
[8] = Subgroup with Elevated E/e′ at Baseline, Pooled (n = 14)
[9] = Subgroup with Elevated cTnI at Baseline, Difference mavacamten vs placebo
[10] = Subgroup with Elevated cTnI at Baseline, Pooled (n = 13)
[11] = week 16, pooled-mavacamten group

## CC(C)n1c(=O)cc(N[C@@H](C)c2ccccc2)[nH]c1=O [mavacamten, (S)-3-Isopropyl-6-((1-phenylethyl)amino)pyrimidine-2, 4(1H,3H)-dione]
5 participants among the 40 receiving active treatment, weeks 11-12
  participants with a decrease in LVEF to ≤45%: 12.5%
Group 1 ~200 ng/mL (n = 9)
  Composite functional endpoint Type 1, %: (11.1) %
  Composite functional endpoint Type 2, %: (22.2) %
  Met composite functional endpoint, either type, %: (33.3) %
Group 2 ~500 ng/mL (n = 12)
  Composite functional endpoint Type 1, %: (8.3) %
  Composite functional endpoint Type 2, %: (25.0) %
  Met composite functional endpoint, either type, %: (33.3) %
Pooled (n = 21)
  Composite functional endpoint Type 1, %: (9.5) %
  Composite functional endpoint Type 2, %: (23.8) %
  Met composite functional endpoint, either type, %: (33.3) %
[1]
  Average Daily Accelerometry Unit: 136328
  Clinical KCCQ Summary Score: 6.891
  NYHA Class: −0.462
  Overall KCCQ Summary Score: 6.410
  Peak VO2: 1.475 mL/min/kg
  Serum NT-proBNP: -950.462 ng/L
  Serum Troponin I: -0.123 ng/mL
[2]
  Average Daily Accelerometry Unit: 350347
  Clinical KCCQ Summary Score: 8.766
  NYHA Class: −0.262
  Overall KCCQ Summary Score: 1.896
  Peak VO2: 2.695 mL/min/kg
  Serum NT-proBNP: -784.062 ng/L
  Serum Troponin I: -0.083 ng/mL
ITT, Group 1
  participants achieving the composite functional endpoint: 16%
[3]
  Change in Clinical KCCQ Summary Score, Mean: 0.11
  Change in LVEDV, Mean: 1.15 mL
  Change in LVEF, Mean: −2.30%
  Change in Lateral e′, Mean: 0.34 cm/s
  Change in NYHA Class, Mean: −0.6
  Change in Overall KCCQ Summary Score, Mean: 0.35
  Change in Peak VO2, Mean: 0.36 mL/min/kg
  Change in Septal e′, Mean: 0.64 cm/s
  NT-proBNP, Geometric mean, percent change: −47.1%
  cTnI, Geometric mean, percent change: −23.4%
ITT, Group 2
  participants achieving the composite functional endpoint: 29%
[4]
  Change in Clinical KCCQ Summary Score, Mean: 5.66
  Change in LVEDV, Mean: 6.50 mL
  Change in LVEF, Mean: −5.61%
  Change in Lateral e′, Mean: 1.46 cm/s
  Change in NYHA Class, Mean: −0.3
  Change in Overall KCCQ Summary Score, Mean: 6.24
  Change in Peak VO2, Mean: 0.12 mL/min/kg
  Change in Septal e′, Mean: 1.60 cm/s
  NT-proBNP, Geometric mean, percent change: −57.9%
  cTnI, Geometric mean, percent change: −41.0%
ITT, Pooled (n = 40)
  Change in Clinical KCCQ Summary Score, Mean: 3.37
  Change in LVEDV, Mean: 4.04 mL
  Change in LVEF, Mean: −4.09%
  Change in Lateral e′, Mean: 0.94 cm/s
  Change in NYHA Class, Mean: −0.4
  Change in Overall KCCQ Summary Score, Mean: 3.82
  Change in Peak VO2, Mean: 0.22 mL/min/kg
  Change in Septal e′, Mean: 1.17 cm/s
  NT-proBNP, Geometric mean, percent change: −53.2%
  cTnI, Geometric mean, percent change: −34.0%
[5]
  cTnI geometric mean difference: -0.008 ng/mL
  cTnI geometric mean, decrease: 34%
Other subgroup (N = 27), Mean
  Average Daily Accelerometry Unit: 82413
  Clinical KCCQ Summary Score: 1.195
  NYHA Class: −0.417
  Overall KCCQ Summary Score: 2.210
  Peak VO2: -0.530 mL/min/kg
  Serum NT-proBNP: -280.667 ng/L
  Serum Troponin I: -0.003 ng/mL
[6]
  Average Daily Accelerometry Unit: 293157
  Clinical KCCQ Summary Score: −5.964
  NYHA Class: 0.122
  Overall KCCQ Summary Score: −4.495
  Peak VO2: -1.807 mL/min/kg
  Serum NT-proBNP: -178.513 ng/L
  Serum Troponin I: -0.004 ng/mL
[7]
  Change from Baseline in Clinical KCCQ Summary Score, Mean: 4.1
  Change from Baseline in LVEDVi, Mean: 3.9 mL/m^2
  Change from Baseline in NT-proBNP, Mean: -355 ng/L
  Change from Baseline in NYHA Class, Mean: 0.0
  Change from Baseline in Overall KCCQ Summary Score, Mean: 0.4
  Change from Baseline in Peak VO2, Mean: 1.9 mL/min/kg
  Change from Baseline in cTnI, Mean: -0.07 ng/mL
[8]
  Change from Baseline in Clinical KCCQ Summary Score, Mean: 4.6
  Change from Baseline in LVEDVi, Mean: 2.8 mL/m^2
  Change from Baseline in NT-proBNP, Mean: -656 ng/L
  Change from Baseline in NYHA Class, Mean: −0.4
  Change from Baseline in Overall KCCQ Summary Score, Mean: 4.7
  Change from Baseline in Peak VO2, Mean: 1.2 mL/min/kg
  Change from Baseline in cTnI, Mean: -0.09 ng/mL
[9]
  Change from Baseline in Clinical KCCQ Summary Score, Mean: 8.8
  Change from Baseline in LVEDVi, Mean: 0.042 mL/m^2
  Change from Baseline in NT-proBNP, Mean: -784 ng/L
  Change from Baseline in NYHA Class, Mean: −0.3
  Change from Baseline in Overall KCCQ Summary Score, Mean: 1.9
  Change from Baseline in Peak VO2, Mean: 2.70 mL/min/kg
  Change from Baseline in cTnI, Mean: -0.083 ng/mL
[10]
  Change from Baseline in Clinical KCCQ Summary Score, Mean: 6.9
  Change from Baseline in LVEDVi, Mean: 0.79 mL/m^2
  Change from Baseline in NT-proBNP, Mean: -951 ng/L
  Change from Baseline in NYHA Class, Mean: −0.5
  Change from Baseline in Overall KCCQ Summary Score, Mean: 6.4
  Change from Baseline in Peak VO2, Mean: 1.47 mL/min/kg
  Change from Baseline in cTnI, Mean: -0.12 ng/mL
Active drug arms
  subjects with transient ejection fraction reductions below the protocol-defined threshold of 45%: five
Combined subgroup (elevated cTnI or E/e′average >14 at baseline), mavacamten-treated
  participants achieving the composite functional endpoint: 33%
Elevated cTnI subgroup, week 16 (2 of 13)
  study subjects in whom cTnI levels remained unchanged: 15.4%
Elevated cTnI subgroup, week 16 vs baseline (11 of 13)
  study subjects in whom cTnI levels decreased: 84.6%
Subjects receiving mavacamten, placebo arm 21%
  Serious adverse events (SAEs), frequency in subjects: 10%
Treated individuals
  percentage change in cardiac troponin I from baseline: 30-80%
Week 16, Group 1
  NT-proBNP geometric mean, decrease: 47%
Week 16, Group 2
  NT-proBNP geometric mean, decrease: 58%
[11]
  NT-proBNP geometric mean difference: -435 pg/mL
  NT-proBNP geometric mean, decrease: 53%
